According to ChEMBL document CHEMBL4419178, “Yap1 inhibitors that target the interaction of yap1 with oct4” (2018):
One block for each molecule: values may come before it. Activity calls are given as the source filed them. The rule behind the calls is not given here.

What was measured:
NCI-H1650 [1] = experiment: Inhibition of YAP1 in human NCI-H1650 cells assessed as disruption in YAP1/TEAD2 interaction at 20 to 50 uM incubated for 48 hrs by proximity ligation assay; format: cell-based
[2] = molecular target: Transcriptional coactivator YAP1 (Homo sapiens) (UniProt P46937); experiment: Inhibition of YAP1 in human NCI-H1650 cells assessed as disruption in YAP1/OCT4 interaction at 20 to 50 uM incubated for 48 hrs by proximity ligation assay; format: cell-based
[3] = molecular target: Transcriptional coactivator YAP1 (Homo sapiens) (UniProt P46937); experiment: Inhibition of YAP1 in human A549 cells assessed as disruption in YAP1/OCT4 co-localization at 25 uM incubated for 48 hrs by double immunofluorescence based assay; format: cell-based
NCI-H1650 [4] = experiment: Inhibition of self-renewal capacity in stem-like side-population cells of human NCI-H1650 cells assessed as reduction in number of spheres at 1 to 20 uM incubated for 10 days by sphere formation assay; format: functional, cell-based
[5] = Cytotoxicity in human cancer associated fibroblasts at 20 to 50 uM incubated for 24 to 48 hrs by cytotracker-red/green dye staining based immunofluorescence microscopy
NCI-H1650 [6] = experiment: Inhibition of self-renewal capacity in stem-like side-population cells of human NCI-H1650 cells assessed as reduction in number of spheres at 50 uM incubated for 10 days by sphere formation assay; format: functional, cell-based
NCI-H1650 [7] = experiment: Cytotoxicity in human NCI-H1650 cells assessed as induction of cell killing in presence of cancer associated fibroblasts at 20 to 50 uM incubated for 24 to 48 hrs by cytotracker-red/green dye staining based immunofluorescence microscopy; format: functional
[8] = molecular target: Transcriptional coactivator YAP1 (Homo sapiens) (UniProt P46937); experiment: Inhibition of YAP1 (unknown origin) assessed as disruption in YAP1/OCT4 interaction at 10 uM by ELISA relative to control
[9] = molecular target: Transcriptional coactivator YAP1 (Homo sapiens) (UniProt P46937); experiment: Inhibition of YAP1 (unknown origin) assessed as disruption in YAP1/OCT4 interaction at 50 uM by cell based assay
[10] = molecular target: Transcriptional coactivator YAP1 (Homo sapiens) (UniProt P46937); experiment: Inhibition of YAP1 (unknown origin) assessed as disruption in YAP1/OCT4 interaction at 5 uM by ELISA relative to control
NCI-H1650 [11] = experiment: Inhibition of self-renewal capacity in stem-like side-population cells of human NCI-H1650 cells assessed as reduction in number of spheres at 5 to 50 uM incubated for 10 days by sphere formation assay; format: functional, cell-based

Chain of Transcriptional coactivator YAP1 (Homo sapiens) (P46937 whole entry): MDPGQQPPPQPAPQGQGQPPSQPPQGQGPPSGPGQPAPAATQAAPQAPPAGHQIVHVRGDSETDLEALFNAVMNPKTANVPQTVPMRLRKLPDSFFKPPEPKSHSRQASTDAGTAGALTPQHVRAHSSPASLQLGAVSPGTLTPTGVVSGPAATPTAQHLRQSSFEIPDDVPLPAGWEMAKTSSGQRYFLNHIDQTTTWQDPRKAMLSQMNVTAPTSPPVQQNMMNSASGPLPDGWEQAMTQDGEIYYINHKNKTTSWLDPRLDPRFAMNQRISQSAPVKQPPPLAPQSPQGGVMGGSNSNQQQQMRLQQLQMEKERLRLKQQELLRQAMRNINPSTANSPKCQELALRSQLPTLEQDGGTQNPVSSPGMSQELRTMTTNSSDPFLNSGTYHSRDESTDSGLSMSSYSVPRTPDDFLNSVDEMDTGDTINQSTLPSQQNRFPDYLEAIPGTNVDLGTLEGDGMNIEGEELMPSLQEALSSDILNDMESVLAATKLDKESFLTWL

inhibition [2]: Active
Structure (SMILES): CCOc1ccc(CCC(=O)N2CCC(CC(=O)N[C@@H](Cc3ccc(OCc4ccccc4)cc3)C(=O)O)CC2)cc1
inhibition (NCI-H1650 [1]): Active

inhibition [3]: Active
inhibition [2]: Active
Structure (SMILES): COCCn1c2nc(=O)n(-c3ccccc3)c(=O)c-2nc2ccccc21
inhibition (NCI-H1650 [4]): Active
Activity [5]: Non-Toxic
inhibition (NCI-H1650 [1]): Active
inhibition (NCI-H1650 [6]): Active
Activity (NCI-H1650 [7]): Active

inhibition [8]: 90%
inhibition [9]: > 73%
inhibition [10]: 90%
Structure (SMILES): O=C(CC1CCN(C(=O)CCc2ccccc2)CC1)N[C@@H](Cc1ccc(OCc2ccccc2)cc1)C(=O)NC1CC1

inhibition [9]: 71%
inhibition [10]: 75%
Structure (SMILES): CC(C)(C)OC(=O)N1CCC(CC(=O)N[C@@H](Cc2ccc(OCc3ccccc3)cc2)C(=O)NC2CCCCC2)CC1

inhibition [3]: Active
inhibition [2]: Active
Structure (SMILES): Oc1ccccc1/N=C/c1c(O)ccc2ccccc12
Activity [5]: Non-Toxic
inhibition (NCI-H1650 [11]): Active
inhibition (NCI-H1650 [1]): Active
inhibition (NCI-H1650 [6]): Active
Activity (NCI-H1650 [7]): Active

inhibition [9]: 70%
inhibition [10]: 78%
Structure (SMILES): COC(=O)[C@H](Cc1ccc(O)cc1)NC(=O)CC1CCN(C(=O)OC(C)(C)C)CC1

inhibition [9]: 74%
inhibition [10]: 75%
Structure (SMILES): CC(C)(C)OC(=O)N1CCC(CC(=O)N[C@@H](Cc2ccc(OCc3ccccc3)cc2)C(=O)O)CC1

inhibition [8]: 75%
inhibition [9]: 84%
Structure (SMILES): COC(=O)[C@H](Cc1ccc(OCc2ccccc2)cc1)NC(=O)CC1CCN(C(=O)c2ccccc2)CC1
inhibition (NCI-H1650 [11]): Active

Structure (SMILES): COC(=O)[C@H](Cc1ccc(OCc2ccccc2)cc1)NC(=O)CC1CCN(C(=O)CCc2ccccc2C)CC1
inhibition (NCI-H1650 [4]): Active

inhibition [9]: > 84%
inhibition [10]: 95%
Structure (SMILES): O=C(CC1CCN(C(=O)CCc2ccccc2)CC1)N[C@@H](Cc1ccc(OCc2ccccc2)cc1)C(=O)NCC1CC1

Structure (SMILES): O=C1NC2C(O)C(O)C(O)C(O)C2c2cc3c(c(O)c21)OCO3 (stereo not given)
inhibition (NCI-H1650 [6]): Active

inhibition [8]: 80%
inhibition [9]: 65%
Structure (SMILES): O=C(CC1CCN(C(=O)CCc2ccccc2)CC1)N[C@@H](Cc1ccc(OCc2ccccc2)cc1)C(=O)NC1CCC1

Structure (SMILES): CC1Oc2cc3c(-c4c(O)cc(O)c5c(O)c6c(cc45)OC(C)C(C)C6=O)c(O)cc(O)c3c(O)c2C(=O)C1C (stereo not given)
Activity [5]: Non-Toxic
inhibition (NCI-H1650 [6]): Active
Activity (NCI-H1650 [7]): Active

inhibition [3]: Active
Structure (SMILES): COc1cc2c(cc1OC)[N+]([O-])=C(c1ccccc1)C2=O
Activity [5]: Non-Toxic
Activity (NCI-H1650 [7]): Active
